In one data set the target is T1, human GLP-1R (Homo sapiens, UniProt P43220).
T1 construct: expressed in transfected cells; host or cells: CHO-K1 clonal cell line
The data set can be described thus: cAMP HTRF agonist activity assay in CHO-K1 cells expressing GLP-1R. As to Activity against human GLP-1R (EC50 nM): 5% FBS, 0.1% Casein. It is filed as cell-based. The method in brief: (§1)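 cAMP accumulation measured by competitive HTRF after 30 min incubation of polypeptides with 5000 receptor-expressing CHO-K1 cells/well at 37°C. Percent of maximal response versus concentration fitted to a four-parameter logistic to give relative EC50.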

In a further data set the target is T2, human GIPR (Homo sapiens, UniProt P48546).
T2 construct: expressed in transfected cells; host or cells: CHO-K1 clonal cell line
T2 sequence (P48546 22-466): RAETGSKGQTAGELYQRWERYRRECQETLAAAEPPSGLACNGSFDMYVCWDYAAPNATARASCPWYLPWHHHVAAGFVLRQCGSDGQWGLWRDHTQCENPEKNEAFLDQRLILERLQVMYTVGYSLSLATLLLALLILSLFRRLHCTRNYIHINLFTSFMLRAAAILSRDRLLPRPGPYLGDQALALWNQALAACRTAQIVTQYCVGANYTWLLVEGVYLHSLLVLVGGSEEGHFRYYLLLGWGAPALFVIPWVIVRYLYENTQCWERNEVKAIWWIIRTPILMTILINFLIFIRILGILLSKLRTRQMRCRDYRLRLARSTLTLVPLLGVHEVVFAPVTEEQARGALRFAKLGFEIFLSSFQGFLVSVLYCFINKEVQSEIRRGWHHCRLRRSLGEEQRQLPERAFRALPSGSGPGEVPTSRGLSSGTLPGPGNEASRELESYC
The data set can be described thus: cAMP HTRF agonist activity assay in CHO-K1 cells expressing GIPR. As to Activity against human GIPR (EC50 nM): 5% FBS, 0.1% Casein. It counts as cell-based. An outline of the steps:
as §1
(In general: TR-FRET usually uses a lanthanide donor and a delayed reading to cut background.)

Another data set concerns the target T3, human GCGR (Homo sapiens, UniProt P47871).
T3 construct: expressed in transfected cells; host or cells: CHO-K1 clonal cell line
The data set can be described thus: cAMP HTRF agonist activity assay in CHO-K1 cells expressing GCGR. As to Activity against human GCGR (EC50 nM): 5% FBS, 0.1% Casein. It counts as cell-based. On the procedure: Functional activity was determined in CHO-K1 clonal cell lines expressing GIPR, GLP-1R, and GCGR. […] Each recipient cell (5000 cells/well) was added to an SV 96-well plate (Cisbio, 66PL96025) and incubated with the prepared polypeptide at 37°Cfor 30 min. The resulting increase in intracellular cAMP was quantitatively measured using the cAMP-GS dynamic HTRF assay kit (Cisbio, 62AM4PEJ). Briefly, the intracellular cAMP levels were determined by adding cAMP-d2 conjugate in cell lysis buffer, followed by the antibody anti-cAMP-Eu cryptate (also in cell lysis buffer).
Using the maximum response percentage vs. the added polypeptide concentration, the relative EC50 values were derived through nonlinear regression analysis and fitted to a four-parameter logarithmic equation. For specific data, refer to Tables 7-1 to 7-8 below. […]

Data set [1] is described as follows: Pharmacokinetics in mice after single intravenous injection. Details: species or system C57 mice. To be noted: mouse, in vivo, male C57 mice, single intravenous dose 200 nmol/kg, plasma. The method in brief:
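Plasma concentrations were measured by positive-mode ESI LC-MS/MRM, with verapamil as internal standard, at time points from 5 min to 72 h. Samples came from three male C57 mice per compound, aged 4-6 weeks, dosed once intravenously with 200 nmol/kg in 1×PBS; PK parameters were derived with PKSolver.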

For data set [2], the target named is T4, human glucose-dependent insulinotropic polypeptide receptor (human, UniProt P48546 22-466).
T4 sequence (looked up): T2 sequence (P48546 22-466)
As to the kind of experiment: cell-based or functional assay.

As usually defined, the EC50 is the midpoint of the concentration-response curve. The term AUC(0-inf) denotes the area under the concentration-time curve extrapolated to infinity. Higher therefore signals more exposure.

Read-outs that look alike come from different tables or passages of the source. Starred links: 1 amine or outer side, 2 acyl side, 3 side chain; linkers in the order of their positions; H or OH if unused. Non-standard residues stand in square brackets, D forms with d. Residues, ends and D or L forms follow the SMILES beside them. Groups on a side chain read outwards from the residue. No end group written: not given here. ξ: configuration not given here. *: point of attachment. C20 diacid = O=C(O)CCCCCCCCCCCCCCCCCCC(=O)*; C17 diacid = O=C(O)CCCCCCCCCCCCCCCC(=O)*; γGlu = O=C(O)[C@H](CCC(=O)[*:2])N[*:1]; αMeK = C[C@](N)(CCCCN)C(=O)O; ξIva = CCC(C)(N)C(=O)O; AEEA = NCCOCCOCC(=O)O; Aib = CC(C)(N)C(=O)O

T3 sequence (P47871 26-477): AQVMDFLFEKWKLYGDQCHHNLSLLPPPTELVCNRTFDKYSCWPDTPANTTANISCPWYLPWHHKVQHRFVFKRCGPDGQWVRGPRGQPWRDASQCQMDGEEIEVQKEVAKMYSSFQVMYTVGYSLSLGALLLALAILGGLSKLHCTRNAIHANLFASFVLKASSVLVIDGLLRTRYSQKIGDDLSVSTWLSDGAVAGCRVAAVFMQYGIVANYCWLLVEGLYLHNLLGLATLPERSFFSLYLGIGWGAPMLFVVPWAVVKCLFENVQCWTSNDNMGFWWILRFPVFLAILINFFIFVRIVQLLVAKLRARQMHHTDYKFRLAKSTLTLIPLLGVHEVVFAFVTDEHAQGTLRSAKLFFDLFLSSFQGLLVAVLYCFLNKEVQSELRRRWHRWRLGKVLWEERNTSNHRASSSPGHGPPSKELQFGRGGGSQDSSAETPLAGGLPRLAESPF
T1 sequence (P43220 24-463): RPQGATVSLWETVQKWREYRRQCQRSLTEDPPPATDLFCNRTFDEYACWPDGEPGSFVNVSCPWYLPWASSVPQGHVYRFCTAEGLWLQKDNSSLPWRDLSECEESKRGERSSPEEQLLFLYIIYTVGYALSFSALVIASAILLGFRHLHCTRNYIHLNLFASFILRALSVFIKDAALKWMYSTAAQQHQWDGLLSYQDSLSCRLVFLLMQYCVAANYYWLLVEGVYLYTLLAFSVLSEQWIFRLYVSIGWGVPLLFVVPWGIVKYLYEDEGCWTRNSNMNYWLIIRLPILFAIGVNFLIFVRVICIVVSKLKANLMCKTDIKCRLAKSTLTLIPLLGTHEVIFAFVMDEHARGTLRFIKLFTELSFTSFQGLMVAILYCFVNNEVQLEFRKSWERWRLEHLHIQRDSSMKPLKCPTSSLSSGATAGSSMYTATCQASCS

Consider `CC[C@H](C)[C@H](NC(=O)[C@](C)(CCCCN)NC(=O)[C@H](CO)NC(=O)[C@H](Cc1ccc(O)cc1)NC(=O)[C@H](CC(=O)O)NC(=O)[C@H](CO)NC(=O)[C@@H](NC(=O)[C@H](Cc1ccccc1)NC(=O)[C@@H](NC(=O)CNC(=O)[C@H](Cc1c[nH]cn1)NC(=O)C(C)(C)NC(=O)[C@@H](N)Cc1c[nH]cn1)[C@@H](C)O)[C@@H](C)O)C(=O)N[C@@H](CC(C)C)C(=O)N[C@@H](CCC(=O)O)C(=O)N[C@@H](CCCCNC(=O)COCCOCCNC(=O)COCCOCCNC(=O)CC[C@H](NC(=O)CCCCCCCCCCCCCCCCCCC(=O)O)C(=O)O)C(=O)N[C@@H](CCCCN)C(=O)N[C@@H](C)C(=O)N[C@@H](C)C(=O)N[C@@H](CCC(N)=O)C(=O)N[C@@H](CCC(=O)O)C(=O)N[C@@H](Cc1ccccc1)C(=O)N[C@H](C(=O)N[C@@H](CCC(=O)O)C(=O)N[C@@H](Cc1c[nH]c2ccccc12)C(=O)N[C@@H](CC(C)C)C(=O)N[C@@H](CC(C)C)C(=O)N[C@@H](C)C(=O)NCC(=O)NCC(=O)N1CCC[C@H]1C(=O)N[C@@H](CO)C(=O)N[C@@H](CO)C(=O)NCC(=O)N[C@@H](C)C(=O)N1CCC[C@H]1C(=O)N1CCC[C@H]1C(=O)N1CCC[C@H]1C(=O)N[C@@H](CO)C(N)=O)C(C)C` [Compound 0119] (H-H[Aib]HGTFTSDYS[αMeK]ILEK([AEEA-AEEA-γGlu-C20 diacid])KAAQEFVEWLLAGGPSSGAPPPS-NH2), for which the EC50 is 0.023 nM on human GLP-1R, 0.005 nM on human GIPR and 0.087 nM on human GCGR. This molecule yielded an AUC(0-inf) in data set [1] of 55.9 µM·h. Besides, in data set [1], the C0 was determined as 6.17 µM. Moreover, in data set [1] (read-out: CLp), the clearance was found to be 3.48 mL/h/kg. The half-life in data set [1] (read-out: T1/2 (converted)) was 13 h.

Regarding `CC[C@H](C)[C@H](NC(=O)[C@H](CC(C)C)NC(=O)[C@H](Cc1c[nH]c2ccccc12)NC(=O)[C@H](CCC(=O)O)NC(=O)[C@@H](NC(=O)[C@H](Cc1ccccc1)NC(=O)[C@H](CCC(=O)O)NC(=O)C(C)(CC)NC(=O)[C@H](C)NC(=O)[C@H](C)NC(=O)[C@H](CCCCN)NC(=O)[C@H](CCCCNC(=O)COCCOCCNC(=O)COCCOCCNC(=O)CC[C@H](NC(=O)CCCCCCCCCCCCCCCCCCC(=O)O)C(=O)O)NC(=O)[C@H](CCC(=O)O)NC(=O)[C@H](CC(C)C)NC(=O)[C@H](CC(C)C)NC(=O)[C@](C)(CCCCN)NC(=O)[C@H](CO)NC(=O)[C@H](CC(C)C)NC(=O)[C@H](CC(=O)O)NC(=O)[C@H](CO)NC(=O)[C@@H](NC(=O)[C@H](Cc1ccccc1)NC(=O)[C@@H](NC(=O)CNC(=O)[C@H](Cc1c[nH]cn1)NC(=O)C(C)(C)NC(=O)[C@@H](N)Cc1c[nH]cn1)[C@@H](C)O)[C@@H](C)O)C(C)C)C(=O)N[C@@H](CCC(=O)O)C(=O)NCC(=O)NCC(=O)N1CCC[C@H]1C(=O)N[C@@H](CO)C(=O)N[C@@H](CO)C(=O)NCC(=O)N[C@@H](C)C(=O)N1CCC[C@H]1C(=O)N1CCC[C@H]1C(=O)N1CCC[C@H]1C(=O)N[C@@H](CO)C(N)=O` (stereo partly shown) [Compound 0133] (H-H[Aib]HGTFTSDLS[αMeK]LLEK([AEEA-AEEA-γGlu-C20 diacid])KAA[ξIva]EFVEWLIEGGPSSGAPPPS-NH2), the EC50 on human GLP-1R (read-out: Activity against human GLP-1R (EC50 nM)) turned out to be 0.016 nM; at human GIPR (read-out: Activity against human GIPR (EC50 nM)), 0.002 nM; on human GCGR (read-out: Activity against human GCGR (EC50 nM)), 0.03 nM.

B1: Compound No. 0114 (peptide)
peptide: Y[Aib]QGTFTSDYS[αMeK]LLEK([AEEA-AEEA-γGlu-C20 diacid])KAAQEFVEWLLAGGPSSGAPPPS-NH2
modifications: N-terminus assumed
SMILES: CC(C)C[C@H](NC(=O)[C@H](CC(C)C)NC(=O)[C@H](Cc1c[nH]c2ccccc12)NC(=O)[C@H](CCC(=O)O)NC(=O)[C@@H](NC(=O)[C@H](Cc1ccccc1)NC(=O)[C@H](CCC(=O)O)NC(=O)[C@H](CCC(N)=O)NC(=O)[C@H](C)NC(=O)[C@H](C)NC(=O)[C@H](CCCCN)NC(=O)[C@H](CCCCNC(=O)COCCOCCNC(=O)COCCOCCNC(=O)CC[C@H](NC(=O)CCCCCCCCCCCCCCCCCCC(=O)O)C(=O)O)NC(=O)[C@H](CCC(=O)O)NC(=O)[C@H](CC(C)C)NC(=O)[C@H](CC(C)C)NC(=O)[C@](C)(CCCCN)NC(=O)[C@H](CO)NC(=O)[C@H](Cc1ccc(O)cc1)NC(=O)[C@H](CC(=O)O)NC(=O)[C@H](CO)NC(=O)[C@@H](NC(=O)[C@H](Cc1ccccc1)NC(=O)[C@@H](NC(=O)CNC(=O)[C@H](CCC(N)=O)NC(=O)C(C)(C)NC(=O)[C@@H](N)Cc1ccc(O)cc1)[C@@H](C)O)[C@@H](C)O)C(C)C)C(=O)N[C@@H](C)C(=O)NCC(=O)NCC(=O)N1CCC[C@H]1C(=O)N[C@@H](CO)C(=O)N[C@@H](CO)C(=O)NCC(=O)N[C@@H](C)C(=O)N1CCC[C@H]1C(=O)N1CCC[C@H]1C(=O)N1CCC[C@H]1C(=O)N[C@@H](CO)C(N)=O
For the molecule B1, in data set [2], the “Activity against human GIPR (EC50 nM)” value was found to be 0.01 nM.

B2: Compound No. 0117 (peptide)
peptide: H[Aib]HGTFTSDYS[αMeK]LLEK([AEEA-AEEA-γGlu-C20 diacid])QAAQEFVEWLLAGGPSSGAPPPS-NH2
modifications: N-terminus assumed
SMILES: CC(C)C[C@H](NC(=O)[C@H](CC(C)C)NC(=O)[C@H](Cc1c[nH]c2ccccc12)NC(=O)[C@H](CCC(=O)O)NC(=O)[C@@H](NC(=O)[C@H](Cc1ccccc1)NC(=O)[C@H](CCC(=O)O)NC(=O)[C@H](CCC(N)=O)NC(=O)[C@H](C)NC(=O)[C@H](C)NC(=O)[C@H](CCC(N)=O)NC(=O)[C@H](CCCCNC(=O)COCCOCCNC(=O)COCCOCCNC(=O)CC[C@H](NC(=O)CCCCCCCCCCCCCCCCCCC(=O)O)C(=O)O)NC(=O)[C@H](CCC(=O)O)NC(=O)[C@H](CC(C)C)NC(=O)[C@H](CC(C)C)NC(=O)[C@](C)(CCCCN)NC(=O)[C@H](CO)NC(=O)[C@H](Cc1ccc(O)cc1)NC(=O)[C@H](CC(=O)O)NC(=O)[C@H](CO)NC(=O)[C@@H](NC(=O)[C@H](Cc1ccccc1)NC(=O)[C@@H](NC(=O)CNC(=O)[C@H](Cc1c[nH]cn1)NC(=O)C(C)(C)NC(=O)[C@@H](N)Cc1c[nH]cn1)[C@@H](C)O)[C@@H](C)O)C(C)C)C(=O)N[C@@H](C)C(=O)NCC(=O)NCC(=O)N1CCC[C@H]1C(=O)N[C@@H](CO)C(=O)N[C@@H](CO)C(=O)NCC(=O)N[C@@H](C)C(=O)N1CCC[C@H]1C(=O)N1CCC[C@H]1C(=O)N1CCC[C@H]1C(=O)N[C@@H](CO)C(N)=O
Regarding B2, the “Activity against human GIPR (EC50 nM)” value in data set [2] turned out to be 0.003 nM.

B3: Compound No. 0118 (peptide)
peptide: H[Aib]HGTFTSDYS[αMeK]LLEK([AEEA-AEEA-γGlu-C17 diacid])IAAQEFVEWLLAGGPSSGAPPPS-NH2
modifications: N-terminus assumed
SMILES: CC[C@H](C)[C@H](NC(=O)[C@H](CCCCNC(=O)COCCOCCNC(=O)COCCOCCNC(=O)CC[C@H](NC(=O)CCCCCCCCCCCCCCCC(=O)O)C(=O)O)NC(=O)[C@H](CCC(=O)O)NC(=O)[C@H](CC(C)C)NC(=O)[C@H](CC(C)C)NC(=O)[C@](C)(CCCCN)NC(=O)[C@H](CO)NC(=O)[C@H](Cc1ccc(O)cc1)NC(=O)[C@H](CC(=O)O)NC(=O)[C@H](CO)NC(=O)[C@@H](NC(=O)[C@H](Cc1ccccc1)NC(=O)[C@@H](NC(=O)CNC(=O)[C@H](Cc1c[nH]cn1)NC(=O)C(C)(C)NC(=O)[C@@H](N)Cc1c[nH]cn1)[C@@H](C)O)[C@@H](C)O)C(=O)N[C@@H](C)C(=O)N[C@@H](C)C(=O)N[C@@H](CCC(N)=O)C(=O)N[C@@H](CCC(=O)O)C(=O)N[C@@H](Cc1ccccc1)C(=O)N[C@H](C(=O)N[C@@H](CCC(=O)O)C(=O)N[C@@H](Cc1c[nH]c2ccccc12)C(=O)N[C@@H](CC(C)C)C(=O)N[C@@H](CC(C)C)C(=O)N[C@@H](C)C(=O)NCC(=O)NCC(=O)N1CCC[C@H]1C(=O)N[C@@H](CO)C(=O)N[C@@H](CO)C(=O)NCC(=O)N[C@@H](C)C(=O)N1CCC[C@H]1C(=O)N1CCC[C@H]1C(=O)N1CCC[C@H]1C(=O)N[C@@H](CO)C(N)=O)C(C)C
Regarding B3, in data set [2], the “Activity against human GIPR (EC50 nM)” value came out at 0.004 nM.
